Assay results published in patent US20230210819A1, “USE OF BENZISOSELAZOLE DERIVATIVE FOR ANTI-CORONAVIRUS AND CONTROL OF INTERSTITIAL LUNG DISEASE (ILD) RELATED TO CORONAVIRUS” (SHANGHAI YUANXI MEDICINE CORP., priority 2020, published 2023).

Legend:
Format in all cases: in vivo, C57 mice
[1] = system: bleomycin-induced mouse lung disease model; experiment: Lung HE pathological analysis (Ashcroft score), 24-h modeling; conditions: for HE score (pulmonary fibrosis, Ashcroft): 15 fields of view
Procedure: (§1) Animals of 24-h modeling were randomly divided into 5 groups according to the table below, 3 animals per control group and 5 animals per test group.
(§2) Drug administration began 24 h or 7 d after modeling. […] The day of the first administration was counted as D1, the next day as D2, and so forth. The normal groups and Model groups were given 200 µL of normal saline daily by gavage administration.
1. […] Specifically, a mold was prepared first, and then the tissue was laid flat at the bottom of the mold; after the section face was arranged facedown, the embedding box cover was put on the mold; molten wax was poured into the mold until it overflowed the mold, and then the mold was gently lifted up and laid flat in a freezing platform; after being rapidly cooled and frozen for about 10 min, the mold was took out. • 6) Sectioning method
2. HE staining • 1) A flat section was selected for HE staining. • 2) The section was dewaxed in xylene I for 20 min. • 3) The section was dewaxed in xylene II for 20 min. • 4) The section was soaked in absolute ethanol for 10 min. • 5) Stepwise rehydrating, in absolute ethanol for 5 min, in 90% ethanol for 5 min, in 80% ethanol for 5 min, and in […] for 5 min; and a water wash. • 6) Staining with hematoxylin for 3-5 min. A water wash. • 7) Differentiating with 1% HCl-[…] for 5-10 s. A water wash, and bluing. • 8) Staining with eosin for 30-60 s. A water wash. • 9) Washing with 80% ethanol for 3-5 s, with 95% ethanol for 3-5 s, and with absolute ethanol for 3-5 s. • 10) Coverslipping with neutral resin, observing under a microscope, and photographing.
HE sectioning: 3 sections were consecutively made; flat sections of complete tissue were selected for HE staining; each of the sections was photographed in 3 randomly selected fields of view at 200x magnification. The obtained images were scored.
The general standard Ashcroft scoring method for pulmonary fibrosis tissues was adopted in HE scoring. The HE pathological analysis is an outcome evaluation for irreversible pulmonary fibrosis that develops in interstitial lung disease models.
For 5 animals from each of the 24-h modeling groups, a total of 15 HE fields of view were scored. […] According to the scoring criteria, a score below 3 points indicates there has been no significant structural change accompanying in the lung tissues.

[2] = system: bleomycin-induced mouse lung disease model; experiment: Lung and spleen coefficients, 7-d modeling
Procedure: (§3) Animals of 7-d modeling were randomly divided into 7 groups according to the table below, 6 animals per control group and 12 animals per test group.
as §2
(§4) Method: after being euthanized, the animals were dissected, and the heart, liver, spleen, lung and kidney were weighed.
(§5) In this experiment, 105 C57 mice were randomly selected and subjected to organ drip administration of a single dose of bleomycin at 2.5 mg/kg for 24 h or 7 d for induction. After 7 days of induction, 3 model mice were randomly selected and dissected to determine whether the modeling was successful. After modeling, the survival of the mice was recorded. The living states of the mice were observed and their body weight was measured at a fixed time.
(§6) A normal control group comprised 6 mice.

[3] = system: bleomycin-induced mouse lung disease model; experiment: Blood gas analysis, 7-d modeling; conditions: for BEect / HCO3^- / PCO2: arterial blood after administration ended
Procedure: as §3, §2
1. After being anaesthetized, a mouse was fixed to a board in a supine position.
2. After the skin was disinfected with alcohol, a midline cut of about 1.5 cm was made downward in the skin of the neck. The connective tissue between the sternohyoid muscle and the stemothyroid muscle was separated along the anterior border of the sternomastoid muscle with a tissue forceps. The pulsating common carotid artery could be seen on the deep right side of the trachea. A common carotid artery of about 1.5 cm in length was separated. The distal end was ligated with silk thread, and the proximal end was clipped with an artery clip and threaded with a silk thread for later use. The mouse board was placed under a dissecting microscope, and a V-shaped centripetal incision was gently made in a site near the distal end of the artery with a microscopy scissor. A PE microcatheter was inserted into the artery and fixed by making a knot with silk thread. The artery clip was removed, and 0.1-0.2 mL of blood was collected with a 1 mL syringe. The proximal end was clipped with an artery clip, and the syringe was removed. The blood was immediately analyzed on an AbboTTi-STAT blood gas microanalyzer.
In a blood gas analysis, the H^+ concentration in the blood and gases (mainly CO2 and O2) dissolved in the blood can be determined to directly reflect the function of pulmonary ventilation and the acid-base balance state. They are used to determine in the organism whether the acid-base balance is upset, whether anoxia occurred, the level of anoxia, and so forth.

[4] = Body weight, bleomycin-induced mice, 24-h modeling; conditions: for Body weight decreased by: day 1 to day 35
Procedure: as §1, §2
(§7) All the animals were observed once daily during the experiment for death or dying, feces, ingestion, mental state and behavior and activity. Abnormalities were recorded in time. All the animals were weighed once before grouping and once before each dose.
as §5
(§8) A normal control group comprised 3 mice.

[5] = system: bleomycin-induced mouse lung disease model; experiment: Lung and spleen coefficients, 24-h modeling
Procedure: as §1, §2, §4, §5, §8

[6] = Body weight, bleomycin-induced mice, 7-d modeling; conditions: for Body weight decreased by: day 1 to day 28
Procedure: as §3, §2, §7, §5, §6

[7] = 24-h modeling, Dex 1-1.5 mg/kg i.p. every two days
[8] = Dex 1-1.5 mg/kg i.p. every two days
[9] = Dex 1-1.5 mg/kg i.p. every two days, D1
[10] = Dex 1-1.5 mg/kg i.p. every two days, D7
[11] = Dex 1-1.5 mg/kg i.p. every two days, D14
[12] = Dex 1-1.5 mg/kg i.p. every two days, D21
[13] = Dex 1-1.5 mg/kg i.p. every two days, D28
[14] = 24-h modeling, BS 90 mg/kg gavage daily

In the case of `C[C@@H]1C[C@H]2[C@@H]3CCC4=CC(=O)C=C[C@]4(C)[C@@]3(F)[C@@H](O)C[C@]2(C)[C@@]1(O)C(=O)CO` [Dex, dexamethasone, reference compound], the “HE score and benefit rate, >4 points (percent of fields)” value [1, 7] is reported as 0%, the “HE score and benefit rate, >5, points (percent of fields)” value [1, 7] is reported as 0% 0% and the “HE score and benefit rate, ≥3 points (percent of fields)” value [1, 7] is reported as 53.3%. The “HE score (pulmonary fibrosis, Ashcroft)” value [1, 7] was 2.53 ± 0.52, the Lung coefficient [2, 8] was 0.96±0.08% and the Spleen coefficient [2, 8] was 0.43±0.04%. For the same molecule, the BEect [3, 8] was -8.50 ± 1.05 mmol/L, the “HCO3^-” value [3, 8] was 27.82 ± 1.08 mmol/L and the PCO2 [3, 8] was 33.60±1.92 mmHg. For the same molecule, the Body weight [4, 9] was 19.92 ± 1.38 g, the Body weight [4, 10] was 20.02 ± 0.96 g and the Body weight [4, 11] was 19.24 ± 0.95 g. It also gave a Body weight [4, 12] of 18.90 ± 0.78 g, a Body weight [4, 13] of 18.56 ± 0.71 g and a Body weight ([4]; Dex 1-1.5 mg/kg i.p. every two days, D35) of 18.36 ± 0.66 g. The “Body weight decreased by” value [4, 8] was 8.48%, the Lung coefficient [5, 8] was 0.93±0.09% and the Spleen coefficient [5, 8] was 0.41±0.06%. The Body weight [6, 9] was 17.79 ± 0.89 g, the Body weight [6, 10] was 17.61 ± 1.02 g and the Body weight [6, 11] was 17.45 ± 0.96 g. The Body weight [6, 12] was 17.43 ± 0.92 g, the Body weight [6, 13] was 17.38 ± 0.85 g and the “Body weight decreased by” value [6, 8] was 2.42%.

For `O=c1c2ccccc2[se]n1CCCCn1[se]c2ccccc2c1=O` [BS, 1,4-[bis(1,2-benzisoselenazol-3(2H)-one)]butane], the “Effect on lung tissue structure, HE (in words)” value ([1]; 24-h model, early stage of pulmonary fibrosis, BS 90 mg/kg) was “significantly reduce structural changes in lung tissues”, the “HE score and benefit rate, >4 points (fields/total)” value [1, 14] was 3/15 and the “HE score and benefit rate, >4 points (percent of fields)” value [1, 14] was 20.0%. The “HE score and benefit rate, >5, points (fields/total)” value [1, 14] was 0/15 0/15, the “HE score and benefit rate, >5, points (percent of fields)” value [1, 14] was 0% 0% and the “HE score and benefit rate, ≥3 points (fields/total)” value [1, 14] was 12/15. The “HE score and benefit rate, ≥3 points (percent of fields)” value [1, 14] was 80.0%, the “HE score (pulmonary fibrosis, Ashcroft)” value [1, 14] was 3.00 ± 0.65 and the “Clear lung tissue damage (HE score up to 5 points), in words” value ([1]; 24-h modeling, after 35 days of administration, Dex 1-1.5 mg/kg, BS 90 mg/kg) was “no clear lung tissue damage occurred”. The “Effect on lung coefficient (in words)” value ([2]; BS 90 mg/kg or 180 mg/kg, effect better than that of Dex) was “significantly reduce increases in the lung coefficient”, the “Effect on spleen coefficient (in words)” value ([2]; BS 180 mg/kg, effect better than that of Dex) was “significantly decrease the spleen coefficient” and the Lung coefficient ([2]; BSH: BS 180 mg/kg gavage daily) was 0.88±0.05%. It also gave a Spleen coefficient ([2]; BSH: BS 180 mg/kg gavage daily) of 0.39±0.02%, a Lung coefficient ([2]; BSL: BS 36 mg/kg gavage daily) of 0.97±0.07% and a Spleen coefficient ([2]; BSL: BS 36 mg/kg gavage daily) of 0.40±0.07%. The Lung coefficient ([2]; BSM: BS 90 mg/kg gavage daily) was 0.90±0.09%, the Spleen coefficient ([2]; BSM: BS 90 mg/kg gavage daily) was 0.40±0.05% and the “Effect on blood gas analysis (in words)” value ([3]; BS 90 mg/kg and 180 mg/kg, better than Dex (1-1.5 mg/kg) in general) was “significant improvements to the function of pulmonary ventilation and the acid-base balance states”. For the same molecule, the BEect ([3]; BSH: BS 180 mg/kg gavage daily) was -8.00 ± 1.10 mmol/L, the “HCO3^-” value ([3]; BSH: BS 180 mg/kg gavage daily) was 27.82 ± 0.91 mmol/L and the PCO2 ([3]; BSH: BS 180 mg/kg gavage daily) was 32.82±2.02 mmHg. The BEect ([3]; BSL: BS 36 mg/kg gavage daily) was -15.67 ± 4.13 mmol/L, the “HCO3^-” value ([3]; BSL: BS 36 mg/kg gavage daily) was 22.30 ± 1.51 mmol/L and the PCO2 ([3]; BSL: BS 36 mg/kg gavage daily) was 27.45±1.35 mmHg. The BEect ([3]; BSM: BS 90 mg/kg gavage daily) was -9.83 ± 0.75 mmol/L, the “HCO3^-” value ([3]; BSM: BS 90 mg/kg gavage daily) was 30.57 ± 1.42 mmol/L and the PCO2 ([3]; BSM: BS 90 mg/kg gavage daily) was 31.62±1.34 mmHg. It also gave a Body weight ([4]; BS 90 mg/kg gavage daily, D1) of 20.34 ± 1.01 g, a Body weight ([4]; BS 90 mg/kg gavage daily, D7) of 19.50 ± 1.35 g and a Body weight ([4]; BS 90 mg/kg gavage daily, D14) of 18.84 ± 1.70 g. It also gave a Body weight ([4]; BS 90 mg/kg gavage daily, D21) of 18.52 ± 1.75 g, a Body weight ([4]; BS 90 mg/kg gavage daily, D28) of 18.30 ± 1.60 g and a Body weight ([4]; BS 90 mg/kg gavage daily, D35) of 18.02 ± 1.75 g. The “Body weight decreased by” value ([4]; BS 90 mg/kg gavage daily) was 13.58%, the Lung coefficient ([5]; BS 90 mg/kg gavage daily) was 0.89±0.04% and the Spleen coefficient ([5]; BS 90 mg/kg gavage daily) was 0.37±0.02%. For the same molecule, the “Effect on spleen coefficient (in words)” value ([5]; BS 90 mg/kg, effect better than that of Dex) was “significantly decrease the spleen coefficient”, the Body weight ([6]; BSH: BS 180 mg/kg gavage daily, D1) was 19.88 ± 0.47 g and the Body weight ([6]; BSH: BS 180 mg/kg gavage daily, D7) was 19.45 ± 0.62 g. It also gave a Body weight ([6]; BSH: BS 180 mg/kg gavage daily, D14) of 19.26 ± 0.44 g, a Body weight ([6]; BSH: BS 180 mg/kg gavage daily, D21) of 19.13 ± 0.54 g and a Body weight ([6]; BSH: BS 180 mg/kg gavage daily, D28) of 19.19 ± 0.71 g. The “Body weight decreased by” value ([6]; BSH: BS 180 mg/kg gavage daily) was 3.62%, the Body weight ([6]; BSL: BS 36 mg/kg gavage daily, D1) was 17.80 ± 0.72 g and the Body weight ([6]; BSL: BS 36 mg/kg gavage daily, D7) was 17.49 ± 0.84 g. For the same molecule, the Body weight ([6]; BSL: BS 36 mg/kg gavage daily, D14) was 17.37 ± 0.80 g, the Body weight ([6]; BSL: BS 36 mg/kg gavage daily, D21) was 17.23 ± 0.76 g and the Body weight ([6]; BSL: BS 36 mg/kg gavage daily, D28) was 17.23 ± 0.82 g. For the same molecule, the “Body weight decreased by” value ([6]; BSL: BS 36 mg/kg gavage daily) was 3.39%, the Body weight ([6]; BSM: BS 90 mg/kg gavage daily, D1) was 18.20 ± 0.87 g and the Body weight ([6]; BSM: BS 90 mg/kg gavage daily, D7) was 17.89 ± 0.92 g. For the same molecule, the Body weight ([6]; BSM: BS 90 mg/kg gavage daily, D14) was 17.63 ± 0.79 g, the Body weight ([6]; BSM: BS 90 mg/kg gavage daily, D21) was 17.46 ± 0.73 g and the Body weight ([6]; BSM: BS 90 mg/kg gavage daily, D28) was 17.41 ± 0.72 g. For the same molecule, the “Body weight decreased by” value ([6]; BSM: BS 90 mg/kg gavage daily) was 4.53%.
